Source: article PMC2860192 (ACS chemical neuroscience, 2010)

Key:
Type in all cases: cell-based
[1] = target: T1, GluR3 (GluR3o, flop variant), homomeric AMPA-type receptor (Rattus norvegicus, UniProt P19492); test: two-electrode voltage clamp, Xenopus oocytes, agonist-evoked current; conditions: 100 μM, −80 mV, pH 7.4
[2] = test system: AMPA receptors expressed by rat cerebral cortex mRNA; test: two-electrode voltage clamp, Xenopus oocytes, block of kainate current; conditions: competitive antagonist; 100 μM kainate; −80 mV; pH 7.4; 19–21°C
[3] = test system: metabotropic glutamate receptors (mGluRs, group I) expressed by rat brain mRNA; conditions: antagonist test, 10 μM quisqualate in the cerebellum mRNA test
[4] = target: T1, GluR3 (GluR3o, flop variant), homomeric AMPA-type receptor; test: two-electrode voltage clamp, Xenopus oocytes, block of kainate current
[5] = target: GluR6 (GluR6(R), edited version), homomeric KA-type receptor (Rattus norvegicus, UniProt P42260, Q621R); test: as above
Chain of GluR6 (GluR6(R), edited version), homomeric KA-type receptor (P42260 32-908 Q621R): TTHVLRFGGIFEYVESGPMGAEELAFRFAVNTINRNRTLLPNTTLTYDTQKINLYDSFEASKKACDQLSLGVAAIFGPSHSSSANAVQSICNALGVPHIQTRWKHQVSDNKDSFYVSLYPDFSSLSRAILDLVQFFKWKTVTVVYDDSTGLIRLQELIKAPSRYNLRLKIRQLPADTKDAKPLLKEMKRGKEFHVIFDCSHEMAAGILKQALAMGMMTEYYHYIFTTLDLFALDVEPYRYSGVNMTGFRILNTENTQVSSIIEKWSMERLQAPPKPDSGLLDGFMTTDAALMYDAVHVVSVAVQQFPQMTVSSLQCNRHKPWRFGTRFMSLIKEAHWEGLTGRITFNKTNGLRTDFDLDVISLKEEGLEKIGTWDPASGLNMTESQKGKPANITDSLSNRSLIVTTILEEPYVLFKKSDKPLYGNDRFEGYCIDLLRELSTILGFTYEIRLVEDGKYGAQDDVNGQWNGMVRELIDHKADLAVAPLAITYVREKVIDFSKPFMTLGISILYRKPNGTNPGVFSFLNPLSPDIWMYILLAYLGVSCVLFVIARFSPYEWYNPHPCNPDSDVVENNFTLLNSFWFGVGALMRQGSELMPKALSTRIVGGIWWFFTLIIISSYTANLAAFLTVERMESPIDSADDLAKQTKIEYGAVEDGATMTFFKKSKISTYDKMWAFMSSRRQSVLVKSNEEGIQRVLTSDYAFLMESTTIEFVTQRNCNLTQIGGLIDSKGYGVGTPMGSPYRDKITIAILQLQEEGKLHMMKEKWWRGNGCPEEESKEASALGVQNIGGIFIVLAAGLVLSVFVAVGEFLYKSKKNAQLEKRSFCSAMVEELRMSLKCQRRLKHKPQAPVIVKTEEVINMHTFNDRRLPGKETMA

Compound | two-electrode voltage clamp, Xenopus oocytes, agonist-evoked current [1] | IC50 [2] | IC50 [3] | IC50 [4] | IC50 [5]
C=C(C)[C@H]1CN[C@H](C(=O)O)[C@H]1CC(=O)O [kainate] | GluR3 receptors, similarly to the AMPA receptors expressed by mRNA, generated large KA-currents |  |  |  | 
N[C@@H](C(=O)O)[C@H](O)[C@@]1(C(=O)O)CC[C@H](C[C@H](NC(=O)c2cc(Cl)c(O)c(Cl)c2)C(=O)O)N1 [(−)-kaitocephalin] |  | 242 ± 37 nM | > 100000 nM | 502 ± 55 nM | ~100000 nM
